Source: patent EP0363326A2, “Fungicidal amines” (SANDOZ AG, priority 1988, dated 1990)

What was measured:
[1] = test system: Pseudocercosporella herpotrichoides; details: causal agent of eyespot of cereals; cited from earlier work
[2] = test system: Gerlachia nivalis; assay: inhibition zone test, treated wheat seeds on agar containing the fungus; type: cell-based; details: seed dressing, evaluated one week after placing on agar
Procedure: (§1) The efficacy against seed-borne diseases can be illustrated by the inhibition zone test: single seeds treated with a seed dressing formulation comprising the compound to be tested e.g. with the seed dressing formulation according to Example 2 (hereinafter described) are placed on agar containing the seed-borne fungus. […] The size of the inhibition zone is evaluated one week after the seed has been placed on the agar. The activity is expressed as the concentration (in g per 100 kg seed) resulting in 90 % or more growth inhibition of the fungal mycelium.

[3] = test system: Fusarium culmorum; assay: as above; type: cell-based; details: seed dressing, evaluated one week after placing on agar
Procedure: as §1

[4] = test system: Pyrenophora teres; assay: inhibition zone test, treated barley seeds on agar containing the fungus; type: cell-based; details: seed dressing, evaluated one week after placing on agar
Procedure: as §1

[5] = test system: Cochliobulus sativus; assay: as above; type: cell-based; details: seed dressing, evaluated one week after placing on agar
Procedure: as §1

[6] = test system: Pyrenophora graminea; assay: as above; type: cell-based; details: seed dressing, evaluated one week after placing on agar
Procedure: as §1

[7] = test system: Pyrenophora graminea; assay: Indoor pot test, spring barley seed dressing; type: in vivo; details: dosage 8 g a.i./100kg seed, growth chamber 10°C, visual evaluation 60 days after dressing and sowing
Procedure: (§2) Spring barley seed naturally infested by Pyrenophora graminea are treated with a seed dressing formulation according to Example 1 and sown in pots filled with a substrate equivalent to a sandy loam in a growth chamber at 10°C with 14-17 hours daylight. The determination of the fungal control involves a visual evaluation 60 days after said dressing and sowing.

[8] = test system: Ustilago nuda; assay: Outdoor pot test, spring barley seed dressing; type: in vivo; details: dosage 8 g a.i./100kg seed
Procedure: as §2
(§3) Analogous tests are run outdoors under naturally occurring wheather conditions with spring barley infected by Pyrenophora graminea and Ustilago nuda. […]

[9] = test system: Pyrenophora graminea; assay: Outdoor pot test, spring barley seed dressing; type: in vivo; details: dosage 8 g a.i./100kg seed
Procedure: as §2, §3

[10] = test system: Septoria nodorum; assay: inhibition zone test, treated wheat seeds on agar containing the fungus; type: cell-based; details: seed dressing, evaluated one week after placing on agar
Procedure: as §1

Row | Compound | fungicidal activity in in-vitro tests [1] | Concentration (g/100 kg Seed) providing ≧90% control [2] [g/100 kg Seed] | Concentration (g/100 kg Seed) providing ≧90% control [3] [g/100 kg Seed] | Concentration (g/100 kg Seed) providing ≧90% control [4] [g/100 kg Seed] | Concentration (g/100 kg Seed) providing ≧90% control [5] [g/100 kg Seed] | Concentration (g/100 kg Seed) providing ≧90% control [6] [g/100 kg Seed] | % Control indoors P. gram. [7] | % Control outdoors U. nuda [8] [%] | % Control outdoors P. gram. [9] [%] | Concentration (g/100 kg Seed) providing ≧90% control [10] [g/100 kg Seed]
1 | CN(C/C=C/c1ccccc1)Cc1cccc2ccccc12 [naftifine] | fungicidal activity |  |  |  |  |  |  |  |  | 
2 | Guazatine |  | 8 | 4 |  |  |  |  |  |  | 
3 | CCCC(C)(C)C#CC=CCN(C)Cc1cccc2ccccc12 [nC₃H₇, N-(6,6-Dimethyl-2-nonen-4-inyl)-N-Methyl-1-naphthylmethylamine] |  | 2 | 8 | 4 | 2 | 2 | 80-90% | 100 | 80 | 2
4 | CN(C/C=C/C#CC(C)(C)C)Cc1cccc2ccccc12 [CH₃, terbinafine] | fungicidal activity | <5 |  |  |  | <5 |  |  |  | 
5 | C=CCOC(Cn1ccnc1)c1ccc(Cl)cc1Cl (stereo not shown) [Standard A, Imazalil] |  |  |  | 8 | 4 | 8 |  |  |  | 8
